Tests used:
[1] = test system: ECHORC (Watergrass (Calif.)); assay: Preemergence weed control under flooded paddy conditions; format: in vivo, Echinochloa oryzoides; conditions: rated 3-4 weeks after treatment
In short: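 Seeds or propagules sown in top 0.5 cm of silt loam soil, flooded 1.5 to 3 cm above surface throughout. Compound in 50/50 v/v aqueous/acetone pipetted into flood water at about 0.0313 to 0.500 kg/ha. Visual 0-9 rating versus control after three to four weeks in greenhouse.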

[2] = test system: IPOHE (Morningglory, Ivyleaf); assay: Postemergence herbicidal evaluation; format: in vivo, Ipomoea hederacea; conditions: postemergence
In short: (§1)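 Scores (0–9) reflect plant stand, vigor, malformation, size, chlorosis and general appearance relative to control, read 4 to 5 weeks after treatment and averaged where tests were repeated. Application: about 0.0156–0.500 kg/ha sprayed at 40 psi onto two-week seedlings.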

[3] = test system: TRZAWR (Wheat, Winter, cv Riband); assay: Postemergence herbicidal evaluation; format: in vivo, Triticum aestivum; conditions: postemergence
In short: as §1

ECHCG (Barnyardgrass) = assay: Preemergence herbicidal evaluation; format: in vivo, Echinochloa crus-galli; conditions: rated 4-5 weeks after treatment
In short: (§2)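 In this greenhouse assay, monocot and dicot seeds are planted in soil and treated prior to emergence with an aqueous acetone spray (about 0.0156-0.500 kg/ha). Plants are assessed visually against control on a 0-9 scale after 4-5 weeks.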

[4] = test system: IPOHE (Morningglory, Ivyleaf); assay: Preemergence herbicidal evaluation; format: in vivo, Ipomoea hederacea; conditions: rated 4-5 weeks after treatment
In short: as §2

SETVI (Foxtail, Green) = assay: Preemergence herbicidal evaluation; format: in vivo, Setaria viridis; conditions: rated 4-5 weeks after treatment
In short: as §2

[5] = test system: TRZAWR (Wheat, Winter, cv Riband); assay: Preemergence herbicidal evaluation; format: in vivo, Triticum aestivum; conditions: rated 4-5 weeks after treatment
In short: as §2

MOOVA (Monochoria) = assay: Preemergence weed control under flooded paddy conditions; format: in vivo, Monochoria vaginalis; conditions: rated 3-4 weeks after treatment
In short: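 Ratings on a 0-9 visual scale cover stand, vigor, malformation, size, chlorosis and overall appearance relative to a control, taken three to four weeks post-treatment. Application was into flood water over freshly sown silt loam at roughly 0.0313 to 0.500 kg/ha.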

ORYSAT (Rice, Tebonnet) = assay: Preemergence herbicidal evaluation; format: in vivo, Oryza sativa, (L.) Tebonnet; conditions: rated 4-5 weeks after treatment
In short: as §2

[6] = test system: CHEAL (Lambsquarters, Common); assay: Preemergence herbicidal evaluation; format: in vivo, Chenopodium album; conditions: rated 4-5 weeks after treatment
In short: as §2

ABUTH (Velvetleaf) = assay: Postemergence herbicidal evaluation; format: in vivo, Abutilon theophrasti; conditions: postemergence
In short: as §1

Cn1c(C(F)(F)F)cc(=O)n(-c2cc(N=C3SCC(=O)N3C3CCCC3)c(Cl)cc2F)c1=O [Compound 166, 3-{4-Chloro-5-[(3-cyclopentyl-4-oxo-2-thiazolidinylidene)amino]-2-fluorophenyl}-1-methyl-6-(trifluoromethyl)-2,4(1H,3H)-pyrimidinedione]
herbicidal effect rating, ECHORC ([1]; 0.0313 kg/ha): 2.0
herbicidal effect rating, ECHORC ([1]; 0.0625 kg/ha): 2.0
herbicidal effect rating, ECHORC ([1]; 0.1250 kg/ha): 2.0
herbicidal effect rating, ECHORC ([1]; 0.2500 kg/ha): 4.0
Herbicidal rating IPOHE ([2]; rate 0.0156 kg/ha): 0.0
Herbicidal rating IPOHE ([2]; rate 0.0313 kg/ha): 2.0
Herbicidal rating IPOHE ([2]; rate 0.0625 kg/ha): 2.0
Herbicidal rating IPOHE ([2]; rate 0.1250 kg/ha): 7.0
Herbicidal rating TRZAWR ([3]; rate 0.0156 kg/ha): 1.5
Herbicidal rating TRZAWR ([3]; rate 0.0313 kg/ha): 1.5
Herbicidal rating TRZAWR ([3]; rate 0.0625 kg/ha): 2.5
Herbicidal rating TRZAWR ([3]; rate 0.1250 kg/ha): 3.0
Preemergence herbicidal rating ECHCG (ECHCG (Barnyardgrass); 0.0156 kg/ha): 0.0
Preemergence herbicidal rating ECHCG (ECHCG (Barnyardgrass); 0.0313 kg/ha): 0.0
Preemergence herbicidal rating ECHCG (ECHCG (Barnyardgrass); 0.0625 kg/ha): 1.0
Preemergence herbicidal rating ECHCG (ECHCG (Barnyardgrass); 0.1250 kg/ha): 0.0
Preemergence herbicidal rating ECHCG (ECHCG (Barnyardgrass); 0.2500 kg/ha): 0.0
Preemergence herbicidal rating ECHCG (ECHCG (Barnyardgrass); 0.5000 kg/ha): 4.0
Preemergence herbicidal rating IPOHE ([4]; 0.0156 kg/ha): 0.0
Preemergence herbicidal rating IPOHE ([4]; 0.0313 kg/ha): 3.0
Preemergence herbicidal rating IPOHE ([4]; 0.1250 kg/ha): 2.0
Preemergence herbicidal rating IPOHE ([4]; 0.2500 kg/ha): 6.0
Preemergence herbicidal rating IPOHE ([4]; 0.5000 kg/ha): 8.0
Preemergence herbicidal rating SETVI (SETVI (Foxtail, Green); 0.0156 kg/ha): 0.0
Preemergence herbicidal rating SETVI (SETVI (Foxtail, Green); 0.0313 kg/ha): 0.0
Preemergence herbicidal rating SETVI (SETVI (Foxtail, Green); 0.0625 kg/ha): 1.0
Preemergence herbicidal rating SETVI (SETVI (Foxtail, Green); 0.1250 kg/ha): 6.0
Preemergence herbicidal rating SETVI (SETVI (Foxtail, Green); 0.2500 kg/ha): 6.0
Preemergence herbicidal rating SETVI (SETVI (Foxtail, Green); 0.5000 kg/ha): 9.0
Preemergence herbicidal rating TRZAWR ([5]; 0.0156 kg/ha): 0.0
Preemergence herbicidal rating TRZAWR ([5]; 0.0313 kg/ha): 0.0
Preemergence herbicidal rating TRZAWR ([5]; 0.0625 kg/ha): 1.0
Preemergence herbicidal rating TRZAWR ([5]; 0.1250 kg/ha): 1.0
Preemergence herbicidal rating TRZAWR ([5]; 0.2500 kg/ha): 1.0
Preemergence herbicidal rating TRZAWR ([5]; 0.5000 kg/ha): 3.0
herbicidal effect rating, MOOVA (MOOVA (Monochoria); 0.0313 kg/ha): 9.0
herbicidal effect rating, MOOVA (MOOVA (Monochoria); 0.0625 kg/ha): 9.0
herbicidal effect rating, MOOVA (MOOVA (Monochoria); 0.1250 kg/ha): 9.0
herbicidal effect rating, MOOVA (MOOVA (Monochoria); 0.2500 kg/ha): 9.0
Preemergence herbicidal rating ORYSAT (ORYSAT (Rice, Tebonnet); 0.0156 kg/ha): 0.0
Preemergence herbicidal rating ORYSAT (ORYSAT (Rice, Tebonnet); 0.0313 kg/ha): 0.0
Preemergence herbicidal rating ORYSAT (ORYSAT (Rice, Tebonnet); 0.0625 kg/ha): 1.0
Preemergence herbicidal rating ORYSAT (ORYSAT (Rice, Tebonnet); 0.1250 kg/ha): 1.0
Preemergence herbicidal rating ORYSAT (ORYSAT (Rice, Tebonnet); 0.2500 kg/ha): 1.0
Preemergence herbicidal rating ORYSAT (ORYSAT (Rice, Tebonnet); 0.5000 kg/ha): 5.0
Preemergence herbicidal rating CHEAL ([6]; 0.0156 kg/ha): 1.0
Preemergence herbicidal rating CHEAL ([6]; 0.0313 kg/ha): 0.0
Preemergence herbicidal rating CHEAL ([6]; 0.0625 kg/ha): 3.0
Preemergence herbicidal rating CHEAL ([6]; 0.1250 kg/ha): 9.0
Preemergence herbicidal rating CHEAL ([6]; 0.2500 kg/ha): 9.0
Preemergence herbicidal rating CHEAL ([6]; 0.5000 kg/ha): 9.0
Herbicidal rating ABUTH (ABUTH (Velvetleaf); rate 0.0156 kg/ha): 2.0
Herbicidal rating ABUTH (ABUTH (Velvetleaf); rate 0.0313 kg/ha): 1.0
Herbicidal rating ABUTH (ABUTH (Velvetleaf); rate 0.0625 kg/ha): 3.0
Herbicidal rating ABUTH (ABUTH (Velvetleaf); rate 0.1250 kg/ha): 9.0

Source: patent publication US20020137929A1, “1 - (3-heterocyclylphenyl) isothiourea, -isourea, -guanidine and -amidine herbicidal agents” (Intellectual Property Department, BASF Aktiengesellschaft, priority 1998, published 2002)
